Assay results from patent US20260138958A1, “SUBSTITUTED N-PHENYLURACILS AND SALTS THEREOF, AND USE THEREOF AS HERBICIDAL ACTIVE SUBSTANCES” (Bayer Aktiengesellschaft, priority 2022, published 2026).

Assays:
Assay type in all cases: in vivo
[1] = system: Triticum aestivum (TRZAS); assay: Post-emergence crop plant compatibility, greenhouse pot test; details: crop plant, post-emergence, 1.25 g/ha
How it was run: (§1)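 Crops grown in sandy loam in the greenhouse were sprayed post-emergence at the one-leaf stage, 2–3 weeks after sowing, with WP or EC formulations plus 0.5% additive at 600 l/ha water. Damage was rated visually after about 3 weeks against untreated controls (0% = like control, 100% = dead).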

[2] = system: Zea mays (ZEAMX); assay: as above; details: crop plant, post-emergence, 1.25 g/ha
How it was run: as §1

[3] = system: Oryza sativa (ORYSA); assay: as above; details: crop plant, post-emergence
How it was run: as §1

[4] = system: Viola tricolor (VIOTR); assay: Post-emergence herbicidal action, greenhouse pot test
How it was run: (§2)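 Post-em greenhouse pots, sandy loam; one-leaf stage (2–3 wk after sowing); WP/EC spray, aq. suspension/emulsion + 0.5% additive, 600 l/ha; optimum conditions ~3 wk; visual % activity vs untreated (100% = dead).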

[5] = system: Pharbitis purpurea (PHBPU); assay: as above
How it was run: as §2

[6] = system: Polygonum convolvulus (POLCO); assay: as above
How it was run: as §2

[7] = system: Alopecurus myosuroides (ALOMY); assay: as above
How it was run: as §2

[8] = system: Abutilon theophrasti (ABUTH); assay: as above
How it was run: as §2

[9] = system: Amaranthus retroflexus (AMARE); assay: as above
How it was run: as §2

[10] = system: Echinochloa crus-galli (ECHCG); assay: as above
How it was run: as §2

[11] = system: Tripleurospermum inodorum (MATIN); assay: as above
How it was run: as §2

[12] = system: Lolium rigidum (LOLRI); assay: as above
How it was run: as §2

[13] = system: Veronica persica (VERPE); assay: as above
How it was run: as §2

[14] = system: Setaria viridis (SETVI); assay: as above
How it was run: as §2

Cn1c(C(F)(F)F)cc(=O)n(-c2cc(Oc3ccccc3OCC(=O)OCC3CC3)c(Cl)cc2F)c1=O [I.7-1]
0%: Post-emergence effect at 1.25 g/ha against TRZAS in % [1] | Post-emergence effect at 1.25 g/ha against ORYSA in % ([3]; 1.25 g/ha)
90%: Post-emergence effect at 5 g/ha against ALOMY in % ([7]; 5 g/ha) | Post-emergence effect at 1.25 g/ha against ABUTH in % ([8]; 1.25 g/ha)
100%: Post-emergence effect at 1.25 g/ha against VIOTR in % ([4]; 1.25 g/ha) | Post-emergence effect at 5 g/ha against VIOTR in % ([4]; 5 g/ha) | Post-emergence effect at 20 g/ha against VIOTR in % ([4]; 20 g/ha) | Post-emergence effect at 5 g/ha against PHBPU in % ([5]; 5 g/ha) | Post-emergence effect at 20 g/ha against PHBPU in % ([5]; 20 g/ha) | Post-emergence effect at 5 g/ha against POLCO in % ([6]; 5 g/ha) | Post-emergence effect at 20 g/ha against POLCO in % ([6]; 20 g/ha) | Post-emergence effect at 20 g/ha against ALOMY in % ([7]; 20 g/ha) | Post-emergence effect at 5 g/ha against ABUTH in % ([8]; 5 g/ha) | Post-emergence effect at 20 g/ha against ABUTH in % ([8]; 20 g/ha) | Post-emergence effect at 1.25 g/ha against AMARE in % ([9]; 1.25 g/ha) | Post-emergence effect at 5 g/ha against AMARE in % ([9]; 5 g/ha) | Post-emergence effect at 20 g/ha against AMARE in % ([9]; 20 g/ha) | Post-emergence effect at 1.25 g/ha against ECHCG in % ([10]; 1.25 g/ha) | Post-emergence effect at 5 g/ha against ECHCG in % ([10]; 5 g/ha) | Post-emergence effect at 20 g/ha against ECHCG in % ([10]; 20 g/ha) | Post-emergence effect at 5 g/ha against MATIN in % ([11]; 5 g/ha) | Post-emergence effect at 20 g/ha against MATIN in % ([11]; 20 g/ha) | Post-emergence effect at 1.25 g/ha against VERPE in % ([13]; 1.25 g/ha) | Post-emergence effect at 5 g/ha against VERPE in % ([13]; 5 g/ha) | Post-emergence effect at 20 g/ha against VERPE in % ([13]; 20 g/ha) | Post-emergence effect at 1.25 g/ha against SETVI in % ([14]; 1.25 g/ha) | Post-emergence effect at 5 g/ha against SETVI in % ([14]; 5 g/ha) | Post-emergence effect at 20 g/ha against SETVI in % ([14]; 20 g/ha)
80%: Post-emergence effect at 1.25 g/ha against PHBPU in % ([5]; 1.25 g/ha) | Post-emergence effect at 1.25 g/ha against POLCO in % ([6]; 1.25 g/ha) | Post-emergence effect at 1.25 g/ha against MATIN in % ([11]; 1.25 g/ha) | Post-emergence effect at 20 g/ha against LOLRI in % [12]
20%: Post-emergence effect at 1.25 g/ha against ZEAMX in % [2] | Post-emergence effect at 5 g/ha against ORYSA in % ([3]; 5 g/ha)
